# Assay results from ChEMBL document CHEMBL3045959, “QSAR studies on substituted 3- or 4-phenyl-1,8-naphthyridine derivatives as antimicrobial agents” (2012).
# Assays:
# Type in all cases: functional
# Escherichia coli = assay: Antibacterial activity against Escherichia coli by […]
# Staphylococcus aureus = assay: Antibacterial activity against Staphylococcus aureus by […]
# [1] = test system: Mycobacterium tuberculosis; assay: Antimycobacterial activity against Mycobacterium tuberculosis H37Rv at 6.25 ug/ml
SMILES,inhibition zone (IZ) (Escherichia coli) [mm],inhibition zone (IZ) (Staphylococcus aureus) [mm],-log(inh/100-inh) [1]
Clc1ccc2c(-c3ccccc3)cc(N3CCOCC3)nc2n1,12,18,-0.2499
Cc1ccc2c(N3CCOCC3)c(C)c(N3CCCCC3)nc2n1,,,-0.908
Oc1cc(-c2ccccc2)c2ccc(N3CCNCC3)nc2n1,,,-0.908
Cc1ccc2c(Cl)c(Cc3ccccc3)c(C)nc2n1,,,0.0872
Oc1ccc2c(-c3ccccc3)cc(N3CCCCC3)nc2n1,,24,
c1cc2c(N3CCCCC3)cc(N3CCOCC3)nc2nc1N1CCOCC1,,,-0.908
c1ccc(-c2cc3ccc(N4CCOCC4)nc3nc2N2CCCCC2)cc1,26,22,0.6886
COc1ccc2c(-c3ccccc3)cc(N3CCOCC3)nc2n1,24,,-0.2689
Clc1ccc(-c2ccc3c(-c4ccccc4)cc(-c4ccc(N5CCNCC5)cc4)nc3n2)cc1,14,22,0.0871
Oc1ccc2c(N3CCOCC3)cc(N3CCOCC3)nc2n1,,,-1.0048
c1cc(N2CCNCC2)ccc1-c1ccc2ccc(-c3ccc(N4CCNCC4)cc3)nc2n1,18,12,-0.0522
COc1ccc2c(-c3ccccc3)cc(CCN3CCNCC3)nc2n1,,,0.4102
Nc1cc2cc(-c3ccccc3)c(N3CCCCC3)nc2nc1N1CCCCC1,26,,0.3889
Cc1ccc2c(N3CCCCC3)c(Cc3ccccc3)c(N3CCCCC3)nc2n1,,,1.3802
Nc1ccc2c(-c3ccccc3)cc(N3CCOCC3)nc2n1,33,20,-0.0522
Clc1ccc2c(N3CCCCC3)cc(N3CCOCC3)nc2n1,,,-1.0607
COc1ccc2cc(-c3ccccc3)c(N3CCNCC3)nc2n1,16,12,0.3076
CCOC(=O)N1CCN(c2cc(-c3ccccc3)c3ccc(N4CCNCC4)nc3n2)CC1,25,23,1.0607
c1ccc(-c2cc3ccc(N4CCCCC4)nc3nc2N2CCCCC2)cc1,20,16,1.9956
CCOC(=O)N1CCN(c2nc3nc(Cl)ccc3cc2-c2ccccc2)CC1,24,,0.3076

SMILES,inhibition zone (IZ) (Escherichia coli) [mm],inhibition zone (IZ) (Staphylococcus aureus) [mm],-log(inh/100-inh) [1]
Cc1ccc2c(Cl)c(C)c(Cl)nc2n1,,,-1.9956
CCOC(=O)N1CCN(c2nc3nc(N4CCOCC4)ccc3cc2-c2ccccc2)CC1,17,13,0.2499
Cc1ccc2c(Cl)c(Cc3ccccc3)c(N3CCCCC3)nc2n1,,,-0.1581
Clc1ccc2c(N3CCOCC3)cc(N3CCOCC3)nc2n1,,,-1.9956
c1ccc(-c2cc(CCN3CCNCC3)nc3nc(CCN4CCNCC4)ccc23)cc1,12,12,0.6297
Nc1ccc2c(N3CCCCC3)cc(N3CCOCC3)nc2n1,,,-1.195
Cc1ccc2c(Cl)c(C)c(N3CCCCC3)nc2n1,,,-0.6886
c1ccc(-c2cc3ccc(N4CCNCC4)nc3nc2N2CCCCC2)cc1,14,18,0.908
CC(=O)Nc1ccc2c(Cl)cc(N3CCCCC3)nc2n1,,,-1.0607
c1cc2c(N3CCOCC3)cc(N3CCOCC3)nc2nc1N1CCOCC1,,,-0.908
Oc1ccc(-c2ccc3c(-c4ccccc4)cc(-c4ccc(N5CCNCC5)cc4)nc3n2)cc1,14,14,-0.3274
CCOC(=O)N1CCN(c2ccc3cc(-c4ccccc4)c(N4CCN(C(=O)OCC)CC4)nc3n2)CC1,18,17,-0.0348
Oc1ccc2c(-c3ccccc3)cc(CCN3CCNCC3)nc2n1,,12,-0.3889
CCOC(=O)N1CCN(c2ccc3cc(-c4ccccc4)c(N4CCCCC4)nc3n2)CC1,18,15,1.0048
c1ccc(-c2cc3ccc(N4CCNCC4)nc3nc2N2CCNCC2)cc1,12,14,0.432
Clc1ccc2c(-c3ccccc3)cc(N3CCCCC3)nc2n1,,26,0.368
Nc1ccc2c(Cl)cc(N3CCCCC3)nc2n1,,,-0.2126
Nc1ccc2cc(-c3ccccc3)c(N3CCCCC3)nc2n1,,18,0.1581
COc1ccc(-c2ccc3ccc(-c4ccc(N5CCNCC5)cc4)nc3n2)cc1,,28,0.7884
Oc1ccc2c(Cl)cc(N3CCOCC3)nc2n1,,,-1.6902

SMILES,inhibition zone (IZ) (Escherichia coli) [mm],inhibition zone (IZ) (Staphylococcus aureus) [mm],-log(inh/100-inh) [1]
Clc1ccc2c(-c3ccccc3)cc(CCN3CCNCC3)nc2n1,16,,0.3274
O=C(CCc1ccc2c(-c3ccccc3)cc(O)nc2n1)OCCN1CCNCC1,,,-0.7202
Cc1ccc2c(N3CCOCC3)c(Cc3ccccc3)c(N3CCCCC3)nc2n1,,,-0.6021
O=[N+]([O-])c1cc2cc(-c3ccccc3)c(N3CCCCC3)nc2nc1N1CCCCC1,,30,0.5754
c1ccc(-c2cc(N3CCCCC3)nc3nc(N4CCCCC4)ccc23)cc1,28,14,1.9956
Clc1cc(N2CCOCC2)nc2nc(N3CCCCC3)ccc12,,,-0.432
Nc1ccc2c(-c3ccccc3)cc(N3CCCCC3)nc2n1,20,14,1.0048
c1ccc(-c2cc(N3CCOCC3)nc3nc(N4CCOCC4)ccc23)cc1,,12,
Nc1ccc2c(-c3ccccc3)cc(CCN3CCNCC3)nc2n1,36,16,0.3475
COC(=O)N1CCN(c2nc3nc(OC)ccc3cc2-c2ccccc2)CC1,12,16,-0.1224
Clc1ccc2c(Cl)cc(N3CCOCC3)nc2n1,,,-0.2126
COc1ccc2c(-c3ccccc3)cc(N3CCCCC3)nc2n1,20,,0.7533
Nc1ccc2c(N3CCCCC3)cc(N3CCNCC3)nc2n1,,,0.4102
Nc1ccc(-c2ccc3ccc(-c4ccc(N5CCNCC5)cc4)nc3n2)cc1,32,16,1.195
c1ccc(-c2cc3ccc(N4CCCCC4)nc3nc2N2CCNCC2)cc1,18,,0.8653
Oc1ccc2c(-c3ccccc3)cc(N3CCOCC3)nc2n1,26,20,
Cc1ccc2c(Cl)c(Cc3ccccc3)c(N3CCOCC3)nc2n1,,,-0.6021
c1cc2c(N3CCCCC3)cc(N3CCOCC3)nc2nc1N1CCCCC1,,,-0.1224
